Experimental data as given in PubChem BioAssay (NCI).
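Five concentrations, 48 hours, 96-well plates. At the GI50, growth is halved. Definition used: TGI = concentration required for complete inhibition of growth.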

How the values were obtained:
Assay in all cases: DTP human tumour cell line panel, 48 h
[1] = test system: SNB-19 CNS
[2] = test system: TK-10 renal
[3] = test system: NCI-H226 lung
[4] = test system: UACC-62 melanoma
[5] = test system: SF-268 CNS
[6] = test system: MCF7 breast
[7] = test system: HS 578T breast
[8] = test system: NCI-H460 lung
[9] = test system: SF-539 CNS
[10] = test system: DU-145 prostate

SMILES: COc1ccc2nc3cc(Cl)ccc3c(Nc3cc(C(C)C)c(O)cc3C)c2c1
- GI50 [1]: 2.97 µM
- TGI [1]: 12.7 µM
- GI50 [2]: 1.75 µM
- TGI [2]: 6.65 µM
- GI50 [3]: 2.23 µM
- TGI [3]: 6.64 µM
- GI50 [4]: 1.72 µM
- TGI [4]: 3.5 µM
- GI50 [5]: 2.35 µM
- TGI [5]: 6.86 µM
- GI50 [6]: 1.66 µM
- TGI [6]: 3.96 µM
- GI50 [7]: 1.61 µM
- TGI [7]: 3.4 µM
- GI50 [8]: 1710 nM
- TGI [8]: 3.45 µM
- GI50 [9]: 1.81 µM
- TGI [9]: 3.61 µM
- GI50 [10]: 2.48 µM
- TGI [10]: 6.97 µM

SMILES: O=C1NC(=O)C(c2c[nH]c3ccccc23)=C1c1ccccc1
- GI50 [1]: > 25 µM
- TGI [1]: > 25 µM
- GI50 [2]: > 25 µM
- TGI [2]: > 25 µM
- GI50 [3]: > 20.1 µM
- TGI [3]: > 25 µM
- GI50 [4]: > 25 µM
- TGI [4]: > 25 µM
- GI50 [5]: > 25 µM
- TGI [5]: > 25 µM
- GI50 [6]: > 25 µM
- TGI [6]: > 25 µM
- GI50 [7]: > 25 µM
- TGI [7]: > 25 µM
- GI50 [8]: > 25000 nM
- TGI [8]: > 25 µM
- GI50 [9]: > 25 µM
- TGI [9]: > 25 µM
- GI50 [10]: > 25 µM
- TGI [10]: > 25 µM

SMILES: O=C(/C=C/c1ccc(O)cc1)c1cc(Cl)ccc1O
- TGI [1]: > 100 µM
- TGI [2]: > 100 µM
- TGI [3]: > 100 µM
- TGI [4]: > 100 µM
- TGI [5]: > 100 µM
- TGI [8]: > 100 µM
- TGI [9]: 44.9 µM

SMILES: Cc1ccc2nc3c(C)cc(=O)cc-3sc2c1
- TGI [1]: > 100 µM
- TGI [2]: 49.8 µM
- TGI [3]: > 100 µM
- TGI [4]: 29 µM
- TGI [5]: > 100 µM
- TGI [8]: 60.6 µM
- TGI [9]: 42.6 µM

SMILES: COC(=O)C1(O)c2ccccc2N=C2C1CCN2C (stereo not drawn)
- TGI [1]: > 100 µM
- TGI [2]: > 100 µM
- TGI [4]: > 100 µM
- TGI [5]: > 100 µM
- TGI [8]: > 100 µM
- TGI [9]: > 100 µM

SMILES: COc1cccc(/C=C\c2ccnc3ccccc23)c1
- TGI [1]: > 10 µM
- TGI [2]: > 10 µM
- TGI [3]: > 10 µM
- TGI [4]: > 10 µM
- TGI [5]: > 10 µM
- TGI [6]: > 10 µM
- TGI [7]: > 10 µM
- TGI [8]: > 10 µM
- TGI [9]: > 10 µM
- TGI [10]: > 10 µM

SMILES: FC(F)(F)c1ccc(NCc2nc3ccccc3[nH]2)cc1
- GI50 [1]: 34.3 µM
- TGI [1]: > 100 µM
- GI50 [2]: 38.2 µM
- TGI [2]: > 100 µM
- GI50 [3]: 26.1 µM
- TGI [3]: > 100 µM
- GI50 [4]: 18.7 µM
- TGI [4]: 56.5 µM
- GI50 [5]: 40.8 µM
- TGI [5]: > 100 µM
- GI50 [6]: 21.5 µM
- TGI [6]: 53.2 µM
- GI50 [7]: 23.3 µM
- TGI [7]: 79 µM
- GI50 [8]: 19500 nM
- TGI [8]: 47.7 µM
- GI50 [9]: 36.8 µM
- TGI [9]: > 100 µM
- GI50 [10]: 47.9 µM
- TGI [10]: > 100 µM

SMILES: CCCCCCCCCCCC(=O)OC(COC(N)=O)COc1ccc(Cl)cc1 (stereo not drawn)
- TGI [1]: 83 µM
- TGI [2]: > 100 µM
- TGI [3]: 46.1 µM
- TGI [4]: 41.3 µM
- TGI [5]: 42.5 µM
- TGI [8]: 47.4 µM
- TGI [9]: 66.4 µM

SMILES: N=C1/C(=C2\Nc3ccccc3S2)CC(=O)N1c1ccc(SC(F)F)cc1
- GI50 [1]: 29.1 µM
- TGI [1]: > 100 µM
- GI50 [2]: 22 µM
- TGI [2]: > 100 µM
- GI50 [3]: 60.9 µM
- TGI [3]: > 100 µM
- GI50 [4]: 24 µM
- TGI [4]: > 100 µM
- GI50 [5]: 4.45 µM
- TGI [5]: > 100 µM
- GI50 [6]: 9.35 µM
- TGI [6]: > 100 µM
- GI50 [7]: 2.17 µM
- TGI [7]: 29.2 µM
- GI50 [8]: 810 nM
- TGI [8]: 30.9 µM
- GI50 [9]: 4.09 µM
- TGI [9]: 28 µM
- GI50 [10]: 77.1 µM
- TGI [10]: > 100 µM

SMILES: O=C1CC[C@@H](NC(=O)Cc2ccccc2)C(=O)N1
- TGI [1]: > 100 µM
- TGI [2]: > 100 µM
- TGI [3]: > 100 µM
- TGI [4]: > 100 µM
- TGI [5]: > 100 µM
- TGI [8]: > 100 µM
- TGI [9]: > 100 µM

SMILES: COc1ccc2c(c1)C(=O)c1c-2c(N2CCN(C(=O)CCNCCNCCO)CC2)nc2ccccc12
- GI50 [1]: 17.5 µM
- TGI [1]: 38 µM
- GI50 [2]: 22.5 µM
- TGI [2]: 43.1 µM
- GI50 [3]: 22.6 µM
- TGI [3]: 48.1 µM
- GI50 [4]: 21.3 µM
- TGI [4]: 38.2 µM
- GI50 [5]: 14.3 µM
- TGI [5]: 36.9 µM
- GI50 [6]: 7.27 µM
- TGI [6]: 25.9 µM
- GI50 [7]: 16.1 µM
- TGI [7]: 35.4 µM
- GI50 [8]: 4610 nM
- TGI [8]: 19.6 µM
- GI50 [9]: 14.5 µM
- TGI [9]: 29.9 µM
- GI50 [10]: 12.1 µM
- TGI [10]: 24.5 µM

SMILES: COC1=CC2CCN3Cc4cc5c(cc4C(C1O)C23)OCC5 (stereo not drawn)
- GI50 [1]: 0.992 µM
- TGI [1]: > 24.5 µM
- GI50 [2]: 5.53 µM
- TGI [2]: 41.9 µM
- GI50 [3]: 1.72 µM
- TGI [3]: 7.6 µM
- GI50 [4]: 2.05 µM
- TGI [4]: 11.1 µM
- GI50 [5]: 4.57 µM
- TGI [5]: > 100 µM
- GI50 [6]: 3.36 µM
- TGI [6]: > 100 µM
- GI50 [7]: 5.7 µM
- TGI [7]: > 32.7 µM
- GI50 [8]: 2100 nM
- TGI [8]: > 100 µM
- GI50 [9]: 3.95 µM
- TGI [9]: 21.3 µM
- GI50 [10]: 2.56 µM
- TGI [10]: 21.2 µM

SMILES: NCC1(N2CCOCC2)C2CCCC21CNc1ccccc1 (stereo not drawn)
- TGI [1]: > 100 µM
- TGI [2]: > 100 µM
- TGI [4]: > 100 µM
- TGI [5]: > 100 µM
- TGI [8]: > 100 µM
- TGI [9]: > 100 µM

SMILES: Fc1ccc(C2C3CCOc4c(ccc5ccccc45)C3=NN2c2ccccc2)cc1 (stereo not drawn)
- GI50 [1]: 99.2 µM
- TGI [1]: > 100 µM
- GI50 [2]: > 65 µM
- TGI [2]: > 100 µM
- GI50 [3]: 34.2 µM
- TGI [3]: 97 µM
- GI50 [4]: > 66.2 µM
- TGI [4]: > 100 µM
- GI50 [5]: > 77.9 µM
- TGI [5]: > 100 µM
- GI50 [6]: > 85.4 µM
- TGI [6]: > 100 µM
- GI50 [7]: > 88.6 µM
- TGI [7]: > 100 µM
- GI50 [8]: 37100 nM
- TGI [8]: > 100 µM
- GI50 [10]: > 100 µM
- TGI [10]: > 100 µM

SMILES: CCCCC(C(=O)CCC(=O)Nc1ccc(Cl)cc1)C(=O)C(C)C (stereo not drawn)
- TGI [1]: > 100 µM
- TGI [2]: > 100 µM
- TGI [3]: > 100 µM
- TGI [4]: > 100 µM
- TGI [5]: > 100 µM
- TGI [8]: > 100 µM
- TGI [9]: > 100 µM

SMILES: Cc1ccc(NC(=O)C(=O)CC(=O)c2ccccc2)cc1C
- TGI [1]: > 100 µM
- TGI [2]: > 100 µM
- TGI [3]: > 100 µM
- TGI [4]: > 100 µM
- TGI [5]: > 100 µM
- TGI [8]: > 100 µM
- TGI [9]: > 100 µM

SMILES: CN1CCN(c2ccc(Nc3ncc4cc5n(c4n3)C3(CCCCC3)CNC5=O)nc2)CC1
- GI50 [3]: 1.27 µM
- TGI [3]: 11.3 µM
- GI50 [4]: 2.94 µM
- TGI [4]: 19.8 µM
- GI50 [5]: 1.46 µM
- TGI [5]: 4.94 µM
- GI50 [6]: 0.109 µM
- TGI [6]: 14.6 µM
- GI50 [7]: 1.71 µM
- TGI [7]: 8.8 µM
- GI50 [8]: 1390 nM
- TGI [8]: 10.6 µM
- GI50 [9]: 2.29 µM
- TGI [9]: 6.72 µM
- GI50 [10]: 3.43 µM
- TGI [10]: 17.2 µM
